From ChEMBL document CHEMBL1123112, “A new generation of phosphodiesterase inhibitors: multiple molecular forms of phosphodiesterase and the potential for drug selectivity” (J Med Chem, 1985)

Legend:
[1] = molecular target: T1, Phosphodiesterase 1 (Homo sapiens, UniProt P54750+Q01064+Q14123); test: Binding affinity for [Ca(2+)]/calmodulin dependent phosphodiesterase PDE 1 of human brain
[2] = molecular target: T2, Phosphodiesterase 3 (Homo sapiens, UniProt Q14432+Q13370); test: Binding affinity for low Km cAMP phosphodiesterase PDE III of human platelets
[3] = molecular target: T3, cGMP-dependent 3',5'-cyclic phosphodiesterase (Homo sapiens, UniProt O00408); test: Percent inhibition of cyclic GMP sensitive phosphodiesterase PDE 2 of guinea pig ventricle; settings: Cavia porcellus; target entry is the homologue from another species; concentration not given here
[4] = molecular target: T1, Phosphodiesterase 1; test: Percent inhibition of [Ca(2+)]/calmodulin dependent phosphodiesterase PDE 1 of guinea pig ventricle; assay type: protein assay; settings: Cavia porcellus; target entry is the homologue from another species; concentration not given here
[5] = molecular target: T2, Phosphodiesterase 3; test: Percent inhibition of low Km cyclic cAMP phosphodiesterase PDE III of guinea pig ventricle; assay type: protein assay; settings: Cavia porcellus; target entry is the homologue from another species; concentration not given here
[6] = molecular target: T3, cGMP-dependent 3',5'-cyclic phosphodiesterase; test: Inhibition of cyclic GMP sensitive phosphodiesterase PDE 2 of guinea pig ventricle; parameters: species or system Cavia porcellus; settings: target entry is the homologue from another species
[7] = molecular target: T1, Phosphodiesterase 1; test: Inhibition of [Ca(2+)]/calmodulin dependent phosphodiesterase PDE 1 of guinea pig ventricle; assay type: protein assay, Cavia porcellus; settings: target entry is the homologue from another species
[8] = molecular target: T3, cGMP-dependent 3',5'-cyclic phosphodiesterase; test: Inhibition of cyclic GMP sensitive phosphodiesterase PDE 2 of human lung
[9] = molecular target: T1, Phosphodiesterase 1; test: Inhibition of [Ca(2+)]/calmodulin dependent phosphodiesterase PDE 1 of human lung; assay type: protein assay
[10] = molecular target: T2, Phosphodiesterase 3; test: Inhibition of low Km cyclic cAMP phosphodiesterase PDE III of guinea pig ventricle; assay type: protein assay, Cavia porcellus; settings: target entry is the homologue from another species
[11] = molecular target: T1, Phosphodiesterase 1; test: Binding affinity for [Ca(2+)]/calmodulin dependent phosphodiesterase PDE 1 of sheep lung; assay type: protein assay, Ovis aries; settings: target entry is the homologue from another species
[12] = molecular target: T2, Phosphodiesterase 3; test: Binding affinity for low Km cAMP phosphodiesterase PDE III of sheep lung; settings: target entry is the homologue from another species
[13] = molecular target: T1, Phosphodiesterase 1; test: Inhibition of [Ca(2+)]/calmodulin dependent phosphodiesterase PDE 1 of human brain
[14] = molecular target: T2, Phosphodiesterase 3; test: Inhibition of low Km cAMP phosphodiesterase PDE III of human platelets
[15] = molecular target: T2, Phosphodiesterase 3; test: Inhibition of low Km cyclic AMP phosphodiesterase PDE III of canine ventricle; assay type: protein assay, Canis lupus familiaris; settings: target entry is the homologue from another species
[16] = molecular target: T2, Phosphodiesterase 3; test: Binding affinity for low Km cAMP phosphodiesterase PDE III of sheep lung; assay type: protein assay, Ovis aries; settings: target entry is the homologue from another species
[17] = molecular target: T1, Phosphodiesterase 1; test: Inhibition of [Ca(2+)]/calmodulin dependent phosphodiesterase PDE 1 of rabbit renal cortex; settings: Oryctolagus cuniculus; target entry is the homologue from another species

T3 sequence (O00408 whole entry): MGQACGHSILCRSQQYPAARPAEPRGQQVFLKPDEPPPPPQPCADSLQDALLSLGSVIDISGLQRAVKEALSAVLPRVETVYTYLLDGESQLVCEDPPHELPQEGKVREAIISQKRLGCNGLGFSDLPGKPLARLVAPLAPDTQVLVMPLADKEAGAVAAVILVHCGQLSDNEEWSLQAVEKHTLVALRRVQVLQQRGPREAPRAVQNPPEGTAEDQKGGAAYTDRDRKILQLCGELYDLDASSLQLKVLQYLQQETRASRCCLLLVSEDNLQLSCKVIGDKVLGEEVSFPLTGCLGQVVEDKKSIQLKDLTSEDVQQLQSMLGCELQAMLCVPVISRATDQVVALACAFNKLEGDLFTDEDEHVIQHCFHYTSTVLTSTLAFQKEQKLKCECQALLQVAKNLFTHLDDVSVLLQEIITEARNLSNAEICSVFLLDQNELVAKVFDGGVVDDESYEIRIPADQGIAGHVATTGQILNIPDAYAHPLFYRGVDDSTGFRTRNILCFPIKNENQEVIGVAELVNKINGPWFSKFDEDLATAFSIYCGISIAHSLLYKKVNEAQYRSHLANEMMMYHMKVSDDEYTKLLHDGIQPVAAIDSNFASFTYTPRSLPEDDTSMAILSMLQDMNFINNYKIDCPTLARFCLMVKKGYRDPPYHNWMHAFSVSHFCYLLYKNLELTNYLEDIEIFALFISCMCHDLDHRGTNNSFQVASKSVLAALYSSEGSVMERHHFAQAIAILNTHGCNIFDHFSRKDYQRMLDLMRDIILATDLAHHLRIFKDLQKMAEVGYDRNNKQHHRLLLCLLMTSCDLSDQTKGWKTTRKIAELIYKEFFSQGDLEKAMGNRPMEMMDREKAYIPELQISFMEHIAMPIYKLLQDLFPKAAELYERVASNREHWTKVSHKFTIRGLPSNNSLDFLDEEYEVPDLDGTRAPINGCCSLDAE

CCOC(CN1CCN(S(=O)(=O)c2ccc3ncnc(N(C)c4ccccc4)c3c2)CC1)c1ccccc1 (centres undefined)
Ki [1]: 4 µM
Ki [2]: 270 µM

CC1CC(=O)NN=C1c1ccc2c(c1)CCC(=O)N2C (centres undefined)
inhibition [3]: 6%
inhibition [4]: 15%
inhibition [5]: 97%

COc1cc([S+](C)[O-])ccc1-c1nc2ncccc2[nH]1 (centres undefined) [SULMAZOLE]
IC50 [6]: 200 µM

Cn1c(=O)c2nc[nH]c2n(C)c1=O.O [THEOPHYLLINE]
IC50 [6]: 210 µM
IC50 [7]: 320 µM

CC(Cl)C(=O)Nc1ccc(C2=NNC(=O)CC2C)cc1 (centres undefined)
inhibition [3]: 0%
inhibition [4]: 5%
inhibition [5]: 92%

CCCCc1cc2c(=O)cc(C(=O)O)[nH]c2c2c(=O)cc(C(=O)O)[nH]c12 [BUFROLIN]
IC50 [8]: 80 µM
IC50 [9]: 16 µM

CSc1ccc(C(=O)c2[nH]c(=O)[nH]c2C)cc1 [ENOXIMONE]
IC50 [6]: 520 µM
IC50 [7]: > 1000 µM

OCCN(CCO)c1nc(N2CCCCC2)c2nc(N(CCO)CCO)nc(N3CCCCC3)c2n1 [DIPYRIDAMOLE]
IC50 [10]: 43 µM

COc1ccc(-c2nc3ccc[nH]c-3n2)c(OC)c1
IC50 [6]: 57 µM
IC50 [7]: 265 µM
IC50 [10]: 390 µM

CCCc1nc(C)cn2c(NC(C)=O)nnc12
Ki [11]: 717 µM
Ki [12]: 217 µM

CCCCOc1cc(CC2CNC(=O)N2)ccc1OC (centres undefined) [RO-201724]
IC50 [8]: 390 µM
IC50 [9]: 250 µM

CCOC(=O)c1c(C)cc2c(CO)n[nH]c(=O)c2c1C [OXAGRELATE]
Ki [1]: 10 µM
Ki [2]: 1.4 µM

Clc1cccc(Nc2nnc(-c3ccccc3)c3ccccc23)c1
Ki [2]: 16 µM

CCC(O)CN(C(=O)CCCCOc1ccc2c(c1)CCC(=O)N2)c1ccccc1 (centres undefined)
IC50 [13]: > 1000 µM
IC50 [14]: 0.073 µM

CCc1[nH]c(=O)[nH]c1C(=O)c1ccncc1 [PIROXIMONE]
IC50 [15]: 8.6 µM

CC(C)Cn1c(=O)n(C)c(=O)c2nc[nH]c21 [ISOBUTYLMETHYLXANTHINE]
IC50 [8]: 12 µM
IC50 [9]: 3.4 µM

Nc1cc(-c2ccncc2)c[nH]c1=O [INAMRINONE]
IC50 [6]: 700 µM
IC50 [7]: > 1000 µM

CCOC(=O)c1cnc2c(cnn2CC)c1NN=C(C)C [ETAZOLATE]
Ki [11]: 60 µM
Ki [16]: 12 µM

CN(C(=O)CCCOc1ccc2[nH]c(=O)ccc2c1)C1CCCCC1 [CILOSTAMIDE]
Ki [1]: 22 µM

O=C1CCc2cc(OCCCCc3nnnn3C3CCCCC3)ccc2N1 [CILOSTAZOL]
IC50 [13]: > 1000 µM
IC50 [14]: 0.19 µM

COc1ccc(C2CNC(=O)C2)cc1OC1CCCC1 (centres undefined)
IC25 [17]: 1400 µM
